According to patent US20090029992A1, “SUBSTITUTED PYRAZOLE COMPOUNDS” (priority 2007, published 2009):
pIC50: −log10 of the molar value.

Experiments:
Assay type in all cases: biochemical
[1] = molecular target: T1, N-terminal His-tagged human Src (Homo sapiens, UniProt P12931); assay: Src kinase inhibition assay (33P-ATP filter assay)
T1 construct: His (N); purchased Upstate USA Inc, 706 Forest Street, Charlottesville, Va

Aurora B kinase = molecular target: T2, Aurora B kinase (Homo sapiens, UniProt Q96GD4); assay: Aurora B (Aurora 1) inhibition assay; conditions: ATP 50 μM, 16 h
T2 construct: purchased BPS Biosciences, San Diego, Calif
T2 sequence (Q96GD4 whole entry): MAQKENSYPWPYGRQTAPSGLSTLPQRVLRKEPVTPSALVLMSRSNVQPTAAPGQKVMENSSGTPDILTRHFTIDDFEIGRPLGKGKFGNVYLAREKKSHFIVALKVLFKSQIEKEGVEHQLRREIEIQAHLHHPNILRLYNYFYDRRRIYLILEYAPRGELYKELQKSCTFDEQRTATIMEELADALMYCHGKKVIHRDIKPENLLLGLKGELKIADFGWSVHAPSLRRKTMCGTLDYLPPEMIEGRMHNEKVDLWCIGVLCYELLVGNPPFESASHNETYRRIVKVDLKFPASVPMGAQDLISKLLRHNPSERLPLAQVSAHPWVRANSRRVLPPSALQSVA
Protocol: Compounds were tested for their potency against recombinant Aurora A (Upstate, Lake Placid, N.Y.) using the PanVera Z′-Lyte kinase assay kit—Ser/Thr 1 peptide (Invitrogen, Carlsbad, Calif.). Assays were carried out in kinase assay buffer (50 mM HEPES, pH 7.5, 10 mM MgCl2, 5 mM EGTA, 0.05% Brij-35, 2 mM DTT). Test compounds were initially dissolved in DMSO at 100× the highest tested concentration, then serially diluted to 4× test concentrations in kinase assay buffer. Next, Aurora A (final concentration 200-500 ng/mL), Z′-Lyte Ser/Thr 1 peptide (final concentration 2 μM) and ATP (final concentration 10 μM) were added according to the manufacturer's instructions. Assays were carried out in half-area 96-well white polystyrene assay plates (Corning, Corning, N.Y.) in a final volume of 20 μl. The reaction was allowed to proceed for 1 h at room temperature in the dark, at which point the development reagent and stop reagent were added according to the manufacturer's instructions. Coumarin (Ex. 400 nm, Em. 465 nm) and fluorescein (Ex. 400 nm, Em. 565 nm) fluorescence values were measured on a SpectraFluor Plus plate reader (Tecan, Durham, N.C.). The emission ratio (coumarin/fluorescein) was determined and used to calculate the percent phosphorylation for each well. Wells containing substrate but no kinase and wells containing a phosphopeptide control were used to set 0% and 100% phosphorylation values, respectively. Typically 20-40% of the substrate was phosphorylated in wells without inhibitor. Dose-response curves of relative Aurora A activity vs. inhibitor concentration were plotted with Grafit (Erithacus Software, Horley, Surrey, UK).
Assays for Aurora B kinase inhibition were carried out similarly to those for Aurora A kinase (see above) with the following modifications. Aurora B kinase (BPS Biosciences, San Diego, Calif.) was used as the enzyme, at a concentration was 2.5 μg/mL. The ATP concentration was 50 μM, and the kinase reaction was allowed to proceed for 16 h. Sodium orthovanadate (20 μM) was added to the buffer to inhibit contaminating phosphatases.

recombinant Aurora A = molecular target: T3, recombinant Aurora A (Homo sapiens, UniProt O14965); assay: Aurora A (Aurora 2) inhibition assay, Z'-Lyte kinase assay; conditions: ATP 10 μM, 1 h
T3 construct: purchased Upstate, Lake Placid, N.Y
T3 sequence (O14965 1-403): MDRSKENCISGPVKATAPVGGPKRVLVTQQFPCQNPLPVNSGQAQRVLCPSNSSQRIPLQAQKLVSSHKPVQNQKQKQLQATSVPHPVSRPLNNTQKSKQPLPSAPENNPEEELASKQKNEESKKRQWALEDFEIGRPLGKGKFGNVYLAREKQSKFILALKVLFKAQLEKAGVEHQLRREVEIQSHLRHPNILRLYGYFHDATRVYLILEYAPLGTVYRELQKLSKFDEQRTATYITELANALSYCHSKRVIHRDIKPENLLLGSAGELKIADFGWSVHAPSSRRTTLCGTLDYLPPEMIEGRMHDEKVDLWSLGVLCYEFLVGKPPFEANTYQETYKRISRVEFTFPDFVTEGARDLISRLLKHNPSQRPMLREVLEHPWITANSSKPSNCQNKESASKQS
Outline: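 Z'-Lyte FRET assay: Aurora A (200-500 ng/mL final), Ser/Thr 1 peptide (2 μM) and ATP (10 μM) in 50 mM HEPES pH 7.5, 10 mM MgCl2, 5 mM EGTA, 0.05% Brij-35, 2 mM DTT, 1 h at room temperature. Coumarin/fluorescein emission ratio converted to percent phosphorylation; dose-response curves plotted.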

[2] = group with IC50 greater than 100 nM

T1 sequence (P12931 whole entry): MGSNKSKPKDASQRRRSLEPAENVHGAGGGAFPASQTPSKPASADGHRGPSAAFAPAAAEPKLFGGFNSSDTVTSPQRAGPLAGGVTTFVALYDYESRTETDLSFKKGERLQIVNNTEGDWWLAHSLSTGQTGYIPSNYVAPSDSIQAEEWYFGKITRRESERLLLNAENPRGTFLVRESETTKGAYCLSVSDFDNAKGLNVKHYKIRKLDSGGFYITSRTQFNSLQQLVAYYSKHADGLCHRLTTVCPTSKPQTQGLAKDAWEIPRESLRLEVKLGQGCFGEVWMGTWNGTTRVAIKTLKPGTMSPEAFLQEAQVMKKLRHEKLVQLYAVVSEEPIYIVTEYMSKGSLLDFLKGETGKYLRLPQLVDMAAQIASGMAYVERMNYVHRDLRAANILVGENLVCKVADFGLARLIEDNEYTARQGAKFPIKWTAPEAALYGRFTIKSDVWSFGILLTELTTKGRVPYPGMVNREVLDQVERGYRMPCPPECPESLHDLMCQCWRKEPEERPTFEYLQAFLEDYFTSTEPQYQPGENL

Row | SMILES | pIC50 ([1]; 40 minutes at room temperature) | pIC50 (Aurora B kinase) | pIC50 (recombinant Aurora A) | pIC50 [1, 2] | pIC50 (recombinant Aurora A; [2])
1 | CC(=O)c1cccc(-c2nc(Nc3cc(C)[nH]n3)cc(N3CCN(C)CC3)n2)c1 [Example 165, 1-(3-(4-(5-methyl-1H-pyrazol-3-ylamino)-6-(4-methylpiperazin-1-yl)pyrimidin-2-yl)phenyl)ethanone] |  | ≥ 6.00 | ≥ 7.00 |  | 
2 | COC(=O)c1cccc(-c2nc(Nc3cc(C)[nH]n3)cc(N3CCN(C)CC3)n2)c1 [Example 166, methyl 3-(4-(5-methyl-1H-pyrazol-3-ylamino)-6-(4-methylpiperazin-1-yl)pyrimidin-2-yl)benzoate] | ≥ 7.00 | ≥ 6.00 | ≥ 7.00 |  | 
3 | Cc1cc(Nc2cc(N3CCN(C)CC3)nc(-c3cc(F)cc(F)c3)n2)n[nH]1 [Example 170, 2-(3,5-difluorophenyl)-N-(5-methyl-1H-pyrazol-3-yl)-6-(4-methylpiperazin-1-yl)pyrimidin-4-amine] | ≥ 7.00 | ≥ 6.00 | ≥ 7.00 |  | 
4 | CCOc1cccc(-c2nc(Nc3cc(C)[nH]n3)cc(N3CCN(C)CC3)n2)c1 [Example 190, 2-(3-ethoxyphenyl)-N-(5-methyl-1H-pyrazol-3-yl)-6-(4-methylpiperazin-1-yl)pyrimidin-4-amine] | ≥ 7.00 | ≥ 6.00 | ≥ 7.00 |  | 
5 | COc1cc(OC)cc(-c2nc(Nc3cc(C)[nH]n3)cc(N3CCN(C)CC3)n2)c1 [Example 191, 2-(3,5-dimethoxyphenyl)-N-(5-methyl-1H-pyrazol-3-yl)-6-(4-methylpiperazin-1-yl)pyrimidin-4-amine] | ≥ 7.00 | ≥ 6.00 | ≥ 7.00 |  | 
6 | Cc1ccc(C)c(-c2nc(Nc3cc(C)[nH]n3)cc(N3CCN(C)CC3)n2)c1 [Example 201, 2-(2,5-dimethylphenyl)-N-(5-methyl-1H-pyrazol-3-yl)-6-(4-methylpiperazin-1-yl)pyrimidin-4-amine] |  |  |  | ≥ 6.00 | ≥ 6.00
7 | Cc1cc(Nc2cc(N3CCN(C)CC3)nc(-c3cccc4ccoc34)n2)n[nH]1 [Example 203, 2-(benzofuran-7-yl)-N-(5-methyl-1H-pyrazol-3-yl)-6-(4-methylpiperazin-1-yl)pyrimidin-4-amine] | ≥ 7.00 |  | ≥ 7.00 |  | 
8 | Cc1cc(Nc2cc(NC3CCOCC3)nc(-c3cccc4ccoc34)n2)n[nH]1 [Example 204, 2-(benzofuran-7-yl)-N^4-(5-methyl-1H-pyrazol-3-yl)-N^6-(tetrahydro-2H-pyran-4-yl)pyrimidine-4,6-diamine] |  |  |  | ≥ 6.00 | ≥ 6.00
9 | Cc1cc(Nc2cc(N(C)CCN(C)C)nc(-c3cccc4ccoc34)n2)n[nH]1 [Example 205, 2-(benzofuran-7-yl)-N^4-(2-(dimethylamino)ethyl)-N^4-methyl-N^6-(5-methyl-1H-pyrazol-3-yl)pyrimidine-4,6-diamine] |  |  |  | ≥ 6.00 | ≥ 6.00

The next lines start with the values.

Row | pIC50 ([1]; 40 minutes at room temperature) | pIC50 (Aurora B kinase) | pIC50 (recombinant Aurora A) | pIC50 [1, 2] | pIC50 (recombinant Aurora A; [2]) | SMILES
10 | ≥ 7.00 | ≥ 6.00 | ≥ 7.00 |  |  | Cc1cc(Nc2cc(N3CCN(C)CC3)nc(-c3ccccc3)n2)n[nH]1 [Compound 8, N-(5-methyl-1H-pyrazol-3-yl)-6-(4-methylpiperazin-1-yl)-2-phenyl pyrimidin-4-amine]
11 | ≥ 7.00 | ≥ 6.00 | ≥ 7.00 |  |  | Cc1cc(Nc2cc(NC3CCOCC3)nc(-c3cc4ccccc4o3)n2)n[nH]1 [Compound 15, 2-(benzofuran-2-yl)-N^4-(tetrahydro-2H-pyran-4-yl)-N^6-(5-methyl-1H-pyrazol-3-yl)-pyrimidine-4,6-diamine]
12 | ≥ 7.00 | ≥ 6.00 | ≥ 7.00 |  |  | Cc1cc(Nc2cc(N3CCN(C)CC3)nc(-c3cccc(-c4ccccc4)c3)n2)n[nH]1 [Compound 16, 2-(biphenyl-3-yl)-N-(5-methyl-1H-pyrazol-3-yl)-6-(4-methylpiperazin-1-yl)pyrimidin-4-amine]
13 | ≥ 7.00 | ≥ 6.00 | ≥ 7.00 |  |  | Cc1cc(Nc2cc(NC3CCOCC3)nc(-c3cccc(F)c3)n2)n[nH]1 [Compound 20, 2-(3-fluorophenyl)-N^4-(5-methyl-1H-pyrazol-3-yl)-N^6-(tetrahydro-2H-pyran-4-yl)pyrimidine-4,6-diamine]
14 | ≥ 7.00 | ≥ 6.00 | ≥ 7.00 |  |  | Cc1cc(Nc2cc(N3CCN(C)CC3)nc(-c3cccc(F)c3)n2)n[nH]1 [Compound 33, 2-(3-fluorophenyl)-N-(5-methyl-1H-pyrazol-3-yl)-6-(4-methylpiperazin-1-yl)pyrimidin-4-amine]
15 | ≥ 7.00 | ≥ 6.00 | ≥ 7.00 |  |  | Cc1cc(Nc2cc(N3CCN(C)CC3)nc(-c3cccc(Cl)c3)n2)n[nH]1 [Compound 36, 2-(3-chlorophenyl)-N-(5-methyl-1H-pyrazol-3-yl)-6-(4-methylpiperazin-1-yl)pyrimidin-4-amine]
16 | ≥ 7.00 | ≥ 6.00 | ≥ 7.00 |  |  | COc1cccc(-c2nc(Nc3cc(C)[nH]n3)cc(N3CCN(C)CC3)n2)c1 [Compound 42, 2-(3-methoxyphenyl)-N-(5-methyl-1H-pyrazol-3-yl)-6-(4-methylpiperazin-1-yl)pyrimidin-4-amine]
17 | ≥ 7.00 | ≥ 6.00 | ≥ 7.00 |  |  | Cc1cc(Nc2cc(NC3CCOCC3)nc(-c3cccc(N(C)C)c3)n2)n[nH]1 [Compound 74, 2-(3-(dimethylamino)phenyl)-N^4-(5-methyl-1H-pyrazol-3-yl)-N^6-(tetrahydro-2H-pyran-4-yl)pyrimidine-4,6-diamine]
18 | ≥ 7.00 | ≥ 6.00 | ≥ 7.00 |  |  | Cc1cc(Nc2cc(NC3CCOCC3)nc(-c3ccc4c(c3)OCCO4)n2)n[nH]1 [Example 130, 2-(2,3-dihydrobenzo[b][1,4]dioxin-6-yl)-N^4-(5-methyl-1H-pyrazol-3-yl)-N^6-(tetrahydro-2H-pyran-4-yl)pyrimidine-4,6-diamine]
19 | ≥ 7.00 | ≥ 6.00 | ≥ 7.00 |  |  | Cc1cc(Nc2cc(N3CCN(C)CC3)nc(-c3ccc4c(c3)OCCO4)n2)n[nH]1 [Example 137, 2-(2,3-dihydrobenzo[b][1,4]dioxin-6-yl)-N-(5-methyl-1H-pyrazol-3-yl)-6-(4-methylpiperazin-1-yl)pyrimidin-4-amine]
20 | ≥ 7.00 | ≥ 6.00 | ≥ 7.00 |  |  | Cc1cc(Nc2cc(N3CCN(C)CC3)nc(-c3ccc4c(c3)OCO4)n2)n[nH]1 [Example 139, 2-(benzo[d][1,3]dioxol-5-yl)-N-(5-methyl-1H-pyrazol-3-yl)-6-(4-methylpiperazin-1-yl)pyrimidin-4-amine]
21 | ≥ 7.00 | ≥ 6.00 | ≥ 7.00 |  |  | Cc1cc(Nc2cc(N3CCN(C)CC3)nc(-c3cccc([N+](=O)[O-])c3)n2)n[nH]1 [Example 162, N-(5-methyl-1H-pyrazol-3-yl)-6-(4-methylpiperazin-1-yl)-2-(3-nitrophenyl)pyrimidin-4-amine]
22 | ≥ 7.00 | ≥ 6.00 | ≥ 7.00 |  |  | Cc1cc(Nc2cc(N3CCN(C)CC3)nc(-c3cccc(C#N)c3)n2)n[nH]1 [Example 163, 3-(4-(5-methyl-1H-pyrazol-3-ylamino)-6-(4-methylpiperazin-1-yl)pyrimidin-2-yl)benzonitrile]
